Measurements from patent US7807841B2, “Spiro-containing compounds and compositions as modulators of steroid hormone nuclear receptors” (IRM LLC, priority 2005, dated 2010).

These compounds were tested against T1, Mineralocorticoid Receptor (MR) (Homo sapiens, UniProt P08235) (assay: Functional assay of mineralocorticoid receptor antagonism (Gal4-MR mammalian two hybrid luciferase reporter, 293T cells)). Details: antagonism of aldosterone (0.4 nM)-induced MR activity.
T1 construct: expressed in transfected cells; host or cells: 293T cells (ATCC)
T1 sequence (P08235 672-984): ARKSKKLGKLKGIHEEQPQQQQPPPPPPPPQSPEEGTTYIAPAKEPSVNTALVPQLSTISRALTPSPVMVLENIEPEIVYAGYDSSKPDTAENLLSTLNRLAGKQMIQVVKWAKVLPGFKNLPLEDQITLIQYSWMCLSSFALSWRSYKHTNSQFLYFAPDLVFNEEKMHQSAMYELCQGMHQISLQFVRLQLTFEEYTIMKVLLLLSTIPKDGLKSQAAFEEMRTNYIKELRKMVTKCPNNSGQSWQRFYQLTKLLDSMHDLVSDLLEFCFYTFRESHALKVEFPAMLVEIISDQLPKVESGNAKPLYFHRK
Format: cell-based
Experimental: The MR antagonist activity of the compounds is determined in a mammalian two hybrid reporter system. The N-terminus of MR (MR-NT, sequence coding amino acid 1-597) is fused to the activation domain of the VP16 gene. The ligand binding domain of MR (MR-LBD, sequence encoding amino acid 672-984) is fused to the DNA binding domain of the yeast Gal4 gene. The MR gene is cloned from a human kidney cDNA library with PCR.
The assay is performed in 384 well plates. Briefly, 293T cells (ATCC) are transfected with expression vectors for Gal-4-MR-LBD and VP16-MR NT, and a luciferase reporter vector containing Gal4 binding sequence (pG5-Luc). Cells are plated in 384 well plates immediately after transfection (approximately 3×10^4 cells/well in 50 μl medium). The medium is supplemented with 3% charcoal-dextran treated fetal bovine serum (Hyclone). Twenty four hours after transfection, compounds prepared in DMSO are transferred to the cells. The cells are then stimulated with 0.4 nM final concentration of aldosterone (Acros) and incubated at 37° C. for another 24 hours before the luciferase activity is assayed with 20 μl of Bright-Glo (Promega) using a luminometer (CLIPR). The expression of luciferase is used as an indicator of aldosterone-induced MR trans-activation. Each compound is tested in duplicates with 12-concentration titration. IC50 values (defined as the concentration of test compound required to antagonize 50% of aldosterone-induced MR activity) are determined from the dose-response curve.

| IC50 [µM] | Compound |
| --- | --- |
| 0.1 to 1 | O=C1CCC2(c3ccn(S(=O)(=O)c4ccccc4)c3)OC3(CN12)c1ccccc1C=Cc1ccccc13 (centres unmarked) [FRS-12] |
| 0.1 to 1 | C1=Cc2ccccc2C2(CN=C(c3ccccc3)O2)c2ccccc21 [OXS-2] |
| 0.1 to 1 | COc1ccc(C2=NCC3(O2)c2ccccc2C=Cc2ccccc23)cc1 [OXS-3] |
| < 0.1 | O=C1CCC2(c3ccc(Br)cc3)OC3(CN12)c1ccccc1C=Cc1ccccc13 (centres unmarked) [FRS-7] |
| 0.1 to 1 | CC1(C)OC2(CN1C(=O)c1ccccc1)c1ccccc1C=Cc1ccccc12 [SOXS-5] |
